Consider three molecules from PubChem BioAssay (NCI).

Each structure is given as a SMILES string.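 Assay format: 96-well plates, 48-hour exposure. TGI marks complete inhibition of growth.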 Some results are limits rather than exact numbers.

Some test systems named below: LOX IMVI melanoma; SK-MEL-5 melanoma; CAKI-1 renal; HOP-62 NSCLC; SF-539 CNS; HCT-116 colon; MALME-3M melanoma; RXF 393 renal; NCI-H460 lung; UACC-257 melanoma; A549 NSCLC; UACC-62 melanoma; SN12C renal; IGROV1 ovarian; SNB-19 CNS; SF-268 CNS; NCI-H226 lung; OVCAR-5 ovarian; HCC-2998 colon; MOLT-4 leukemia.
Common to all, as to assay: NCI tumour cell line growth inhibition, 48 h

Turning to `CCOc1ccc(C(C)c2cc3c(cc2OC)OCO3)cc1` (stereo not given), the TGI with LOX IMVI melanoma was over 100 µM; in the assay on SK-MEL-5 melanoma it was 1.15 µM; in the assay with CAKI-1 renal, over 100 µM; with HOP-62 NSCLC it was 23.1 µM; in the assay on SF-539 CNS it was 0.631 µM; in the assay on HCT-116 colon, 4.82 µM. For the same molecule, the TGI is 89.7 µM in the assay with MALME-3M melanoma; 0.539 µM in the assay on RXF 393 renal; over 100 µM with NCI-H460 lung; 52.8 µM in the assay with UACC-257 melanoma; 90.8 µM with A549 NSCLC; over 100 µM in the assay on UACC-62 melanoma. The TGI is 40.7 µM in the assay on SN12C renal; over 100 µM in the assay with IGROV1 ovarian; over 100 µM in the assay with SNB-19 CNS; 45.5 µM in the assay on SF-268 CNS; 0.752 µM in the assay on NCI-H226 lung; over 100 µM in the assay on OVCAR-5 ovarian. For the same molecule, the TGI in the assay on HCC-2998 colon worked out at 12.1 µM; in the assay on MOLT-4 leukemia, 15 µM.

`COC1=CC(=O)C=C(OC)C1=O`: the TGI in the assay with LOX IMVI melanoma amounted to 13.1 µM; in the assay on SK-MEL-5 melanoma, 37.5 µM; in the assay on CAKI-1 renal, 96.6 µM; in the assay with HOP-62 NSCLC it was 54.3 µM; in the assay on SF-539 CNS it was 37.8 µM; in the assay on HCT-116 colon, 15.1 µM. Besides, the TGI was determined as 51 µM in the assay with MALME-3M melanoma; 20.7 µM with RXF 393 renal; 57.1 µM with NCI-H460 lung; 34.4 µM in the assay on UACC-257 melanoma; 95.7 µM with A549 NSCLC; 11.6 µM with UACC-62 melanoma. In addition, the TGI stood at 35.1 µM with SN12C renal; 31.3 µM in the assay on IGROV1 ovarian; 27 µM in the assay with SNB-19 CNS; 15.3 µM in the assay on SF-268 CNS; 30.8 µM in the assay with NCI-H226 lung; 52.2 µM in the assay with OVCAR-5 ovarian. For the same molecule, the TGI with HCC-2998 colon amounted to 56.2 µM; in the assay on MOLT-4 leukemia, 3.59 µM.

Consider `CN1Cc2cc(O)c(O)cc2C(O)C1` (stereo not given), for which the TGI in the assay on LOX IMVI melanoma, in the assay on SK-MEL-5 melanoma, in the assay with CAKI-1 renal, in the assay on HOP-62 NSCLC, in the assay on SF-539 CNS and in the assay with HCT-116 colon was over 100 µM in each case. Besides, the TGI with MALME-3M melanoma, in the assay with RXF 393 renal, with NCI-H460 lung, with UACC-257 melanoma, with A549 NSCLC and in the assay on UACC-62 melanoma was over 100 µM in each case. In addition, the TGI with SN12C renal, with IGROV1 ovarian, in the assay with SNB-19 CNS, with SF-268 CNS, with NCI-H226 lung and in the assay on OVCAR-5 ovarian was over 100 µM each time. Also, the TGI with HCC-2998 colon and with MOLT-4 leukemia was over 100 µM throughout.
